Experimental findings from ChEMBL document CHEMBL1133234, “Synthesis and biological activity of 4'-methoxy derivatives of abscisic acid” (2000) are described below.

What all share (format): functional
Experiment [1] deals with Hordeum vulgare subsp. vulgare. Put plainly: Compound was tested for inhibition of GA-inducible alpha-amylase induction in barley aleurone protoplasts at 0.1 uM.
Experiment [2] concerns Hordeum vulgare subsp. vulgare. Description: Compound was tested for inhibition of GA-inducible alpha-amylase induction in barley aleurone protoplasts at 1 uM.
The subject of experiment [3] is Hordeum vulgare subsp. vulgare. Description: Compound was tested for inhibition of GA-inducible alpha-amylase induction in barley aleurone protoplasts at 100 uM.
Experiment [4] concerns Hordeum vulgare subsp. vulgare. Put plainly: Compound was tested for inhibition of GA-inducible alpha-amylase induction in barley aleurone protoplasts at 10 uM.
Experiment [5] has as its system Hordeum vulgare subsp. vulgare. Put plainly: Compound was tested for inhibition of GA3-induced alpha-amylase induction and induction of the accumulation of dehydrin in unstressed barley seeds at 10 uM; Active.
In experiment [6] the test system is Lepidium sativum. Description: Compound was tested for inhibition of cress germination at 0.1 uM.
Experiment [7] deals with Lepidium sativum. Description: Compound was tested for inhibition of cress germination at 10 uM.
Experiment [8] relates to Lepidium sativum. Description: Compound was tested for inhibition of cress germination at 100 uM.
Experiment [9] deals with Lepidium sativum. Put plainly: Compound was tested for inhibition of cress germination at 1 uM.
Experiment [10] deals with Hordeum vulgare subsp. vulgare. Description: Compound was tested for inhibition of GA3-induced alpha-amylase induction and induction of the accumulation of dehydrin in unstressed barley seeds; Active.

Each structure is given as a SMILES string. The source made the active and inactive calls. The rule behind the calls is not given here.

In the case of `CC1=CC(=O)CC(C)(C)[C@@]1(O)/C=C/C(C)=C\C(=O)O` (racemic) [(+)-ABSCISIC ACID], the inhibition in experiment [1] was 50%; in experiment [2], 100%; in [3], 100%; in experiment [4], 100%. Further, the outcome in experiment [5] was Active. Also, in [6], the inhibition at 0.1 µM is approximately 60%. Besides, the inhibition at 10 µM in [7] is approximately 100%. Besides, in experiment [8], the inhibition at 100 µM was approximately 100%. In addition, the inhibition at 1 µM in experiment [9] is approximately 80%.

Turning to `CO[C@@H]1C=C(C)[C@](O)(/C=C/C(C)=C\C(=O)O)C(C)(C)C1`, the inhibition in experiment [1] turned out to be 60%; in experiment [2], 90%; in [3], 100%; in experiment [4] it was 100%. In addition, in experiment [10], the result was Active. The same molecule displayed an inhibition at 0.1 µM in experiment [6] of approximately 40%. The molecule also yielded an inhibition at 10 µM in [7] of approximately 95%. In addition, the inhibition at 100 µM in [8] is approximately 100%. In experiment [9], this molecule had an inhibition at 1 µM of approximately 60%.

Turning to `CO[C@H]1C=C(C)[C@](O)(/C=C/C(C)=C\C(=O)O)C(C)(C)C1`, the inhibition in experiment [1] stood at 20%; in experiment [2] it was 50%; in experiment [3], 100%; in experiment [4], 90%. Besides, the result in [10] was Active. In experiment [6], the inhibition at 0.1 µM was approximately 20%. The molecule also came in with an inhibition at 10 µM in experiment [7] of approximately 95%. For the same molecule, in [8], the inhibition at 100 µM was approximately 100%. In experiment [9], the inhibition at 1 µM was approximately 40%.

The inhibition is the relative decrease from the control value, in per cent.
